According to patent US9139587B2, “N1-pyrazolospiroketone acetyl-CoA carboxylase inhibitors” (Pfizer Inc., priority 2009, dated 2015):
One block for each compound: values may come before it.

What was measured:
[1] = target: T1, recombinant human ACC2 (rhACC2) (Homo sapiens, UniProt O00763, V2141I); experiment: recombinant hACC2 Transcreener assay (direct inhibition of ACC2 activity); assay type: biochemical; conditions: Transcreener ADP detection FP assay, 50 μM ATP, 30 μM acetyl-CoA, 50 min at 25° C.
T1 construct: a full length Cytomax clone of ACC2 was purchased from Cambridge Bioscience Limited; made in house; host or cells: CHO cells (tetracycline-induced, pcDNA5 FRT TO-TOPO)
T1 sequence (O00763 whole entry V2141I): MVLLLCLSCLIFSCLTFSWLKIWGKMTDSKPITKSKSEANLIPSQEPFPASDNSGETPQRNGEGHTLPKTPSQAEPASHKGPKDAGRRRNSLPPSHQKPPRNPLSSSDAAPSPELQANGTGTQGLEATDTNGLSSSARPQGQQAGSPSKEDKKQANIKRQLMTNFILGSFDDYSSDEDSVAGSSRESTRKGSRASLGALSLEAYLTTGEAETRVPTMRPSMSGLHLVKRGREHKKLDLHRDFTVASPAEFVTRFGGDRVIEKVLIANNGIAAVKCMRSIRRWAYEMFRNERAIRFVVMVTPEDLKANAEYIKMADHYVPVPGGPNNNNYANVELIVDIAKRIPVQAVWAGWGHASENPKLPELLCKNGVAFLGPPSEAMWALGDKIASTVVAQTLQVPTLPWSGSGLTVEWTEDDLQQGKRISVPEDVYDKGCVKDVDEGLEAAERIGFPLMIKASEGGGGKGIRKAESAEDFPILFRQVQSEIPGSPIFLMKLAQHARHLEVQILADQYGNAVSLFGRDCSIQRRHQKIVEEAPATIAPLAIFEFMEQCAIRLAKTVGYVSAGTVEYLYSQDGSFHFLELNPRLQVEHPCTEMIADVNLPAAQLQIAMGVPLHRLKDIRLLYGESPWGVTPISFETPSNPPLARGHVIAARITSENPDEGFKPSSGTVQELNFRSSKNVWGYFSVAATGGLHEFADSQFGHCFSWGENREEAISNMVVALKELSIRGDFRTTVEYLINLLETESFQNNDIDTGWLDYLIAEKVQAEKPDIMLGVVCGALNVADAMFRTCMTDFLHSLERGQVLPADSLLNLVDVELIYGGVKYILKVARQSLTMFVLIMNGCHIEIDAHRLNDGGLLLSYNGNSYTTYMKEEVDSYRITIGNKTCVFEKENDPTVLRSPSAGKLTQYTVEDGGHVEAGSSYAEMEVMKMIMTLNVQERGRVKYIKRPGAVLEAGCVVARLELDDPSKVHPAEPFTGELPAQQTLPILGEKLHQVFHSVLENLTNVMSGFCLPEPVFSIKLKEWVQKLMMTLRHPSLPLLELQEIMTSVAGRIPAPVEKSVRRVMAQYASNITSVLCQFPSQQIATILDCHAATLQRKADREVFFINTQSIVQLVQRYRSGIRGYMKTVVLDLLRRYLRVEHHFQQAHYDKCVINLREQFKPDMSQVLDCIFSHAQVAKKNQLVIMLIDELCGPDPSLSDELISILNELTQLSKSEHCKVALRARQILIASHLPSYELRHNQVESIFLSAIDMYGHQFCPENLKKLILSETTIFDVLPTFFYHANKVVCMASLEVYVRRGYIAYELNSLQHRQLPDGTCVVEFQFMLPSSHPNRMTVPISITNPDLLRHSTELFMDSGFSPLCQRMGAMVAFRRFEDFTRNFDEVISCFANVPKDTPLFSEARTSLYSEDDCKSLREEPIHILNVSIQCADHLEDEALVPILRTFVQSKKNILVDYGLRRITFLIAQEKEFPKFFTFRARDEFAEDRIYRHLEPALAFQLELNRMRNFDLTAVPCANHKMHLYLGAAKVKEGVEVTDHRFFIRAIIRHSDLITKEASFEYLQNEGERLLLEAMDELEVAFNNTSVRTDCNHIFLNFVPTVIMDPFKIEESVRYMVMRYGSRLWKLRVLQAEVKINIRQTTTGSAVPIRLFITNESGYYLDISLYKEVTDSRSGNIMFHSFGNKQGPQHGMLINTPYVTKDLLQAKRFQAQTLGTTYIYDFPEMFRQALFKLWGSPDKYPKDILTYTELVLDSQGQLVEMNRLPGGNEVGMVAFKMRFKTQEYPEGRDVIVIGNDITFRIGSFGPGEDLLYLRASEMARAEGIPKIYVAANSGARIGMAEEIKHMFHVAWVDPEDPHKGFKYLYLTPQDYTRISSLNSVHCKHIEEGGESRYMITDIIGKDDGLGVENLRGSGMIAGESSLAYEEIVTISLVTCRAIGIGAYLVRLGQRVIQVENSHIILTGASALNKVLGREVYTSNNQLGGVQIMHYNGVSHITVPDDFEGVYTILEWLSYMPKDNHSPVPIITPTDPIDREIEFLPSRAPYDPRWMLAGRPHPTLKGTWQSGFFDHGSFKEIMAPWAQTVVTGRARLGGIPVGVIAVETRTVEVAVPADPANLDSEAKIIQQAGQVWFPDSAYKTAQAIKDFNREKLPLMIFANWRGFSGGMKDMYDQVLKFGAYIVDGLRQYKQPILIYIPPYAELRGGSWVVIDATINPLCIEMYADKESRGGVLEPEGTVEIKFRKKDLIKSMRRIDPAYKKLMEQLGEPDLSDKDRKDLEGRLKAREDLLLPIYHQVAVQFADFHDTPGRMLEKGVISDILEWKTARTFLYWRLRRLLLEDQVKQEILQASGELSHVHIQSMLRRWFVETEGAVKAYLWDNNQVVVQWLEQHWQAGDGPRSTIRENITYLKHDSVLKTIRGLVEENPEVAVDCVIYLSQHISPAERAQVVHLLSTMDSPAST
Procedure: For example direct inhibition of ACC activity, for the compound of Formula (1) was determined using preparations of recombinant human ACC1 (rhACC1) and recombinant human ACC2 (rhACC2). Representative sequences of the recombinant human ACC1 and ACC2 that can be used in the assay are provided in FIG. 1 (SEQ ID NO. 1) and FIG. 2 (SEQ. ID NO. 2), respectively.
[3] Preparation of rhACC2. Human ACC2 inhibition was measured using purified recombinant human ACC2 (hrACC2). Briefly, a full length Cytomax clone of ACC2 was purchased from Cambridge Bioscience Limited and was sequenced and subcloned into PcDNA5 FRT TO-TOPO (Invitrogen, Carlsbad, Calif.). The ACC2 was expressed in CHO cells by tetracycline induction and harvested in 5 liters of DMEM/F12 with glutamine, biotin, hygromycin and blasticidin with 1 μg/mL tetracycline (Invitrogen, Carlsbad, Calif.). The conditioned medium containing ACC2 was then applied to a Softlink Soft Release Avidin column (Promega, Madison, Wis.) and eluted with 5 mM biotin. 4 mgs of ACC2 were eluted at a concentration of 0.05 mg/mL (determined by A280) with an estimated purity of 95% ([…]). The purified ACC2 was dialyzed in 50 mM Tris, 200 mM NaCl, 4 mM DTT, 2 mM EDTA, and 5% glycerol. The pooled protein was frozen and stored at −80° C., with no loss of activity upon thawing. For measurement of ACC2 activity and assessment of ACC2 inhibition, test compounds were dissolved in DMSO and added to the rhACC2 enzyme as a 5× stock with a final DMSO concentration of 1%.
[4] Measurement of human ACC2 inhibition. hACC2 was assayed in a Costar #3676 (Costar, Cambridge, Mass.) 384-well plate using the Transcreener ADP detection FP assay kit (Bellbrook Labs, Madison, Wisconsin) using the manufacturer's recommended conditions for a 50 uM ATP reaction. The final conditions for the assay were 50 mM HEPES, pH 7.2, 5 mM MgCl2, 5 mM tripotassium citrate, 2 mM DTT, 0.1 mg/mL BSA, 30 μM acetyl-CoA, 50 μM ATP, and 8 mM KHCO3 Typically, a 10 μl reaction was run for 50 min at 25° C., and 10 μl of Transcreener stop and detect buffer was added and the combination incubated at room temp for an additional 1 hour. The data was acquired on an Envision Fluorescence reader (Perkinelmer) using a 620 excitation Cy5 FP general dual mirror, 620 excitation Cy5 FP filter, 688 emission (S) and a 688 (P) emission filter.

[2] = target: T2, recombinant human ACC1 (rhACC1) (Homo sapiens, UniProt Q13085, DEL44-44); experiment: recombinant hACC1 Transcreener assay (direct inhibition of ACC1 activity); assay type: biochemical; conditions: Transcreener ADP detection FP assay, 50 μM ATP, 30 μM acetyl-CoA, 120 min at 25° C.
T2 construct: recombinant baculovirus containing full length human ACC1 cDNA; made in house; host or cells: SF9 insect cells (baculovirus)
Procedure: For example direct inhibition of ACC activity, for the compound of Formula (1) was determined using preparations of recombinant human ACC1 (rhACC1) and recombinant human ACC2 (rhACC2). Representative sequences of the recombinant human ACC1 and ACC2 that can be used in the assay are provided in FIG. 1 (SEQ ID NO. 1) and FIG. 2 (SEQ. ID NO. 2), respectively. Preparation of rhACC1. Two liters of SF9 cells, infected with recombinant baculovirus containing full length human ACC1 cDNA, were suspended in ice-cold lysis buffer (25 mM Tris, pH 7.5; 150 mM NaCl; 10% glycerol; 5 mM imidazole (EMD Bioscience; Gibbstown, N.J.); 2 mM TCEP (BioVectra; Charlottetown, Canada); Benzonase nuclease (10000 U/100 g cell paste; Novagen; Madison, Wis.); EDTA-free protease inhibitor cocktail (1 tab/50 mL; Roche Diagnostics; Mannheim, Germany). Cells were lysed by 3 cycles of freeze-thaw and centrifuged at 40,000×g for 40 minutes (4° C.). Supernatant was directly loaded onto a HisTrap FF crude column (GE Healthcare; Piscataway, N.J.) and eluted with an imidazole gradient up to 0.5 M over 20 column volumes (CV). ACC1-containing fractions were pooled and diluted 1:5 with 25 mM Tris, pH 7.5, 2 mM TCEP, 10% glycerol and direct loaded onto a CaptoQ (GE Healthcare) column and eluted with an NaCl gradient up to 1 M over 20 CV's. Phosphate groups were removed from purified ACC1 by incubation with lambda phosphatase (100 U/10 μM target protein; New England Biolabs; Beverly, Mass.) for 14 hours at 4° C.; okadaic acid was added (1 μM final concentration; Roche Diagnostics) to inhibit the phosphatase. Purified ACC1 was exchanged into 25 mM Tris, pH 7.5, 2 mM TCEP, 10% glycerol, 0.5 M NaCl by 6 hour dialysis at 4° C. Aliquots were prepared and frozen at −80° C. […] The final conditions for the assay were 50 mM HEPES, pH 7.2, 10 mM MgCl2, 7.5 mM tripotassium citrate, 2 mM DTT, 0.1 mg/mL BSA, 30 μM acetyl-CoA, 50 μM ATP, and 10 mM KHCO3 Typically, a 10 μl reaction was run for 120 min at 25° C., and 10 μl of Transcreener stop and detect buffer was added and the combination incubated at room temp for an additional 1 hour. The data was acquired on a Envision Fluorescence reader (Perkinelmer) using a 620 excitation Cy5 FP general dual mirror, 620 excitation Cy5 FP filter, 688 emission (S) and a 688 (P) emission filter.

SMILES: Cc1noc(-c2cc(C(=O)N3CCC4(CC3)CC(=O)c3c(cnn3C(C)C)C4)ccn2)n1 [Example 2A-60]
IC50 [1]: 3990 nM | IC50 [2]: 8240 nM

SMILES: CC(C)n1ncc2c1C(=O)C(C)(C)C1(CCN(C(=O)c3ccc4[nH]ncc4c3)CC1)C2 [Example 6A-1, 1′-(1H-indazole-5-carbonyl)-1-isopropyl-6,6-dimethyl-4,6-dihydrospiro[indazole-5,4′-piperidin]-7(1H)-one]
IC50 [1]: 373 nM | IC50 [2]: 1530 nM

SMILES: CC(C)(C)n1nc(C#N)c2c1C(=O)CC1(CCN(C(=O)c3ccc4[nH]ncc4c3)CC1)C2 [Example 2A-78]
IC50 [1]: 1270 nM | IC50 [2]: 3840 nM

SMILES: CC(C)n1ncc2c1C(=O)CC1(CCN(C(=O)c3nn(-c4ccccc4)nc3N)CC1)C2 [Example 11A-6]
IC50 [1]: 459 nM | IC50 [2]: 989 nM

SMILES: CC(C)n1ncc2c1C(=O)CC1(CCN(C(=O)c3c[nH]c4ncccc34)CC1)C2 [Example 2A-71]
IC50 [1]: 387 nM | IC50 [2]: 1060 nM

SMILES: CC(C)n1ncc2c1C(=O)CC1(CCN(C(=O)c3ccc(N4CCOCC4)cn3)CC1)C2 [Example 11A-42]
IC50 [1]: 2850 nM | IC50 [2]: 11700 nM

SMILES: CC(C)(C)n1nc(C#N)c2c1C(=O)CC1(CCN(C(=O)c3ccc4[nH]ncc4c3)CC1)C2 [Example 2A-77]
IC50 [1]: 1300 nM | IC50 [2]: 6160 nM

SMILES: CC(C)(C)n1ncc2c1C(=O)CC1(CCN(C(=O)c3ccc(N4CCOCC4)nc3)CC1)C2 [Example 11A-22]
IC50 [1]: 539 nM | IC50 [2]: 1260 nM

SMILES: CC(C)(C)n1ncc2c1C(=O)CC1(CCN(C(=O)c3cccnc3C(N)=O)CC1)C2 [Example 11A-11]
IC50 [1]: 1450 nM | IC50 [2]: 10600 nM

Now those with a lower IC50 [1], led by results:

IC50 [1]: 290 nM | IC50 [2]: 599 nM
SMILES: CC(C)n1ncc2c1C(=O)CC1(CCN(C(=O)c3ccc4cnccc4c3O)CC1)C2 [Example 2A-72]

IC50 [1]: 253 nM | IC50 [2]: 418 nM
SMILES: Cc1cccn2cc(C(=O)N3CCC4(CC3)CC(=O)c3c(cnn3C(C)C)C4)nc12 [Example 11A-14]

IC50 [1]: 155 nM | IC50 [2]: 646 nM
SMILES: Cc1cc(C(=O)N2CCC3(CC2)CC(=O)c2c(cnn2C2CCC2)C3)ccc1Cl [Example 1A-3]

IC50 [1]: 125 nM | IC50 [2]: 399 nM
SMILES: CC(C)n1ncc2c1C(=O)C(C)C1(CCN(C(=O)c3ccc4[nH]ncc4c3)CC1)C2 (racemic) [Example 4A-1, 1′-(1H-indazole-5-carbonyl)-1-isopropyl-6-methyl-4,6-dihydrospiro[indazole-5,4′-piperidin]-7(1H)-one]

IC50 [1]: 116 nM | IC50 [2]: 262 nM
SMILES: CC(C)n1ncc2c1C(=O)CC1(CCN(C(=O)c3cnc4ccnn4c3N)CC1)C2 [Example 2A-40]

IC50 [1]: 106 nM | IC50 [2]: 224 nM
SMILES: CNc1nc(C)ccc1C(=O)N1CCC2(CC1)CC(=O)c1c(cnn1C(C)(C)C)C2 [Example 11A-30]

IC50 [1]: 93 nM | IC50 [2]: 121 nM
SMILES: CC(C)n1ncc2c1C(=O)CC1(CCN(C(=O)c3cc4cccnc4[nH]3)CC1)C2 [Example 2A-20]

IC50 [1]: 80.7 nM | IC50 [2]: 175 nM
SMILES: CC(C)n1ncc2c1C(=O)C(C)C1(CCN(C(=O)c3ccc4[nH]ncc4c3)CC1)C2 (single isomer, unassigned; (-)) [Example 5A-2, (−)-1′-(1H-indazole-5-carbonyl)-1-isopropyl-6-methyl-4,6-dihydrospiro[indazole-5,4′-piperidin]-7(1H)-one]

IC50 [1]: 51 nM | IC50 [2]: 170 nM
SMILES: CC(C)(C)n1ncc2c1C(=O)CC1(CCN(C(=O)c3ccc4c(c3)CC(=O)N4)CC1)C2 [Example 2A-30]

IC50 [1]: 29.5 nM | IC50 [2]: 167 nM
SMILES: CC(C)n1ncc2c1C(=O)CC1(CCN(C(=O)c3ccc4c(c3)[nH]c(=O)n4C)CC1)C2 [Example 2A-46]

IC50 [1]: 27 nM | IC50 [2]: 172 nM
SMILES: CC(C)n1ncc2c1C(=O)CC1(CCN(C(=O)c3ccc4c(=O)[nH]ccc4c3)CC1)C2 [Example 2A-14]

IC50 [1]: 24.4 nM | IC50 [2]: 105 nM
SMILES: CC(C)(C)n1ncc2c1C(=O)CC1(CCN(C(=O)c3cccc(-c4ncc[nH]4)c3)CC1)C2 [Example 11A-64]

IC50 [1]: 19.3 nM | IC50 [2]: 54.2 nM
SMILES: Cc1nc2c(Cl)cc(C(=O)N3CCC4(CC3)CC(=O)c3c(cnn3C(C)C)C4)cc2[nH]1 [Example 2A-52]
